Experimental data as given in US6888015B2, “Sphingolipid synthesis inhibitor” (Japan Science and Technology Agency, priority 2001, dated 2005).

Molecular target: T1, serine palmitoyltransferase (Cricetulus griseus, UniProt O54694+O54695)
T1 construct: Membrane fraction prepared from CHO cells is used as an enzyme source; endogenous in cells; host or cells: CHO cells, membrane fraction
T1 sequence (O54695 1-473): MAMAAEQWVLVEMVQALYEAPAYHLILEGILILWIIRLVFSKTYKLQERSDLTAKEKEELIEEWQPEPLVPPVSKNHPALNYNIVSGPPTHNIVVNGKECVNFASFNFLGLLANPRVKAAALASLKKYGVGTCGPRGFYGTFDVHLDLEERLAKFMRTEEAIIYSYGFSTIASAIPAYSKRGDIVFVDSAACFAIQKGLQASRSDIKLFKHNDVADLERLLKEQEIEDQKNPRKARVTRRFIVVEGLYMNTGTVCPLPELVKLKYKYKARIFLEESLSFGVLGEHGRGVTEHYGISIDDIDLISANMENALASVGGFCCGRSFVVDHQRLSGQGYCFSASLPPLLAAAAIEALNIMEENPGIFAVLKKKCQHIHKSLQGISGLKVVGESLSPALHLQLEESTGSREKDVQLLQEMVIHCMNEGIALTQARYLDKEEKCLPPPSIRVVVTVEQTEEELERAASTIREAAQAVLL
T1 sequence (O54694 1-560): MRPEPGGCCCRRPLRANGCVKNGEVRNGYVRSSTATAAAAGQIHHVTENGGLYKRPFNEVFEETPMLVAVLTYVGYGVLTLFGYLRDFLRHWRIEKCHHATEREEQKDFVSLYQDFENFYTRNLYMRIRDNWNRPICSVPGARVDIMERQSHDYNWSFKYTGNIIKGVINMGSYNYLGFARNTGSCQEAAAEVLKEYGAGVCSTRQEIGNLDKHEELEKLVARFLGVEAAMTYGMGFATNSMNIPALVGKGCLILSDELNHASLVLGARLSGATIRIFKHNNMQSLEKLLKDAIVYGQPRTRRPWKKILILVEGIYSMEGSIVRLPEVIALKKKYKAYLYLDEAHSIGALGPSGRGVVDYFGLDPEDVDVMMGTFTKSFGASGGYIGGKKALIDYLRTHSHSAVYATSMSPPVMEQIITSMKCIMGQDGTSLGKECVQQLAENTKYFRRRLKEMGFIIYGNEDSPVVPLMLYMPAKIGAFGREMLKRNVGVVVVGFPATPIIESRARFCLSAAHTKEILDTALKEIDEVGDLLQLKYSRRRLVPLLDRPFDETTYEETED
Experiment: Serine palmitoyltransferase activity, CHO membrane fraction
Format: biochemical, Chinese hamster
Settings: 20 μM; data not shown
Method: Membrane fraction prepared from CHO cells is used as an enzyme source.
Serine palmitoyltransferase activity is determined by the method disclosed in Document 7, and sphingosine N-acyl transferase activity is determined by a modification of the method disclosed in Document 7.

CCCCCCCCCCCC(=O)NC(CO)CC(O)c1ccccc1 (stereo not shown) [HPA-12, N-(3-hydroxy-1-hydroxymethyl-3-phenylprol)dodecaneamide]
activity of serine palmitoyltransferase: does not affect
